Measured values as given in patent US7563445B2, “CD40 binding molecules and CTL peptides for treating tumors” (priority 1998, dated 2009).

Tests used:
[1] = test system: HPV16 transformed syngeneic cells (TC-1); test: Therapy of HPV16 E6/E7 transformed tumor cells (TC-1) by peptide plus in vivo CD40 triggering; parameters: species or system C57BL/6 mice; settings: treated 6 days after s.c. injection of 25.000 TC-1 cells; 100 μg peptide i.p. in IFA; n=10
Description: Mice were injected s.c with 25.000 HPV16 transformed syngeneic cells (TC-1). C57BL/6 mice were left untreated (-◯-) or after 6 days received 100 μg HPV16 E7-peptide i.p. in IFA (-□-), 100 μg HPV16 E7-peptide i.p. in IFA in combination with the anti-CD40 mAb FGK-45 (-▪-) or a control peptide i.p. in IFA in combination with the anti-CD40 mAb FGK-45 (-●-). The percentage of tumor bearing mice is depicted for different treatment groups (n=10) in (a). The differences between the group treated with the HPV16-peptide plus the anti-CD40 mAb and the other three groups were statistically significant (p<0.01) (Log-Rank test). In (b) the percentage of surviving animals is shown (E7-peptide-treated group vs E7-peptide plus anti-CD40-treated group: p=0.002, Log-Rank test).
It was examined whether CD40-triggering in vivo is beneficial to the outcome of vaccination with an HPV16 E7-derived peptide.

E1A-specific CTL clone = test: Spleen cells of peptide-injected mice as stimulator cells for an E1A-specific CTL clone ([3H]-thymidine incorporation); format: cell-based, C57BL/6 mice; settings: splenocytes isolated 16 h after s.c. injection of 100 μg peptide in IFA
Description: Spleen cells derived from untreated C57BL/6 mice (−), or from mice injected s.c. 16 h earlier with 100 μg of E1A- or HPV16 E7-peptide in IFA were used as stimulator cells for an E1A-specific CTL clone. [^3H]-thymidine incorporation (cpm) +/−S. E. M. is shown for different effector to stimulator concentrations,. without subtraction of background counts. Results are representative of 5 independent experiments.
Spleen cells from these mice were isolated 16h later and used as stimulator cells for an E1A-specific CTL clone in vitro.

[2] = test system: HPV16 transformed syngeneic cells (TC-1); settings: preventive vaccination with peptide, prior knowledge; cited from earlier work
E1A-specific CTL = test: E1A-peptide in IFA with in vivo CD40-triggering: E1A-specific CTL cytotoxicity and Db/E1A tetramer staining; parameters: species or system C57BL/6 mice; settings: spleen of vaccinated mice
Description: Since CD4^+ T cell-mediated helper activity has been implicated in the prevention of peripheral CTL tolerance induction, the inventors addressed the question whether CD40-triggering in vivo is sufficient to prevent peripheral E1A-specific CTL tolerization.

CD40 = target: T1, CD40 (Mus musculus, UniProt P27512); test: Cross-priming of E1B-specific CTLs in mice immunized with Ad5E1-BALB/c MECs, CD40 activation replacing CD4+ T help; format: in vivo; settings: CD4-depleted mice after immunization; LPS 50 μg intravenous; IL-2 1×10^5 units in IFA subcutaneous (not shown)
T1 construct: endogenous in cells
Description: (§1) Each line represents one mouse.
as §1

T1 sequence (P27512 20-289): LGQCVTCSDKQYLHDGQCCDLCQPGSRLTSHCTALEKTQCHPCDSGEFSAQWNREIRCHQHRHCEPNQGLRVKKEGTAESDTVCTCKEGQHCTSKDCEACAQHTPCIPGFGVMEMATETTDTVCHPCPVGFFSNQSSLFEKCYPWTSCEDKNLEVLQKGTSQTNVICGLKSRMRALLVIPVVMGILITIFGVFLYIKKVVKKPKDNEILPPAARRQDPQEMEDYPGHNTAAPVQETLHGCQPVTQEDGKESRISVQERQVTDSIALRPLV

Row | Substance | Tumor growth / outgrowth [1] | Proliferation of E1A-specific CTL clone on splenocytes (E1A-specific CTL clone) | Immunity against a challenge with HPV16-transformed tumor cells [2] | Percentage of CD8+ cells that stained with the Db/E1A tetramers (E1A-specific CTL) | E1B-specific CTL activity / CTL priming (CD40)
1 | RAHYNIVTF (Human Papilloma Virus Type 16 E7 derived peptide) [E7-peptide] | able to slow down tumor growth, but eventually most animals succumb to the tumor | failed to do so | induces protective CTL-mediated immunity | – | –
2 | SGPSNTPPEI (Human Adenovirus E1A derived peptide) [E1A-peptide] | – | induced specific proliferation | – | approximately 3% | –
3 | bacterial lipopolysaccharide [LPS] | – | – | – | – | neither LPS or IL-2 treatment resulted in detectable CTL priming
